Data: patent US20250368614A1, “COMPOUNDS AND METHODS FOR YAP/TEAD MODULATION AND INDICATIONS THEREFOR” (OPNA BIO SA, priority 2023, published 2025)

These molecules were tested on TEAD-dependent transcription (12XGTIIC TEAD response element luciferase reporter) in MSTO-211H cells (assay: TEAD-dependent transcription cell-based luciferase reporter assay in MSTO-211H+12XGTIIC cells). Settings: Homo sapiens; MSTO-211H+12XGTIIC reporter cells, 24 hours compound incubation, luminescence normalized to cell viability signal, geometric mean; read-out: MSTO-211H GMean IC50 (uM) Cell Assay Reporter Cell Variant: TEAD.
Excerpt: Determine Inhibitor Activity Against TEAD-Dependent Transcription in a Cell-Based Reporter Assay
The human mesothelioma cell line MSTO-211H was stably transfected with a pGL4.21 plasmid containing a synthetic promoter with 12 copies of the GTIIC TEAD response element that drives the expression of a luciferase reporter gene^1 using Lipofectamine transfection reagent (Thermo Fisher). Transfected cells were selected using puromycin and single cell clones expressing this construct (referred to as MSTO-211H+12XGTIIC) were generated by limiting dilution. MSTO-211H cells was characterized by genetic alterations in key components of the Hippo pathway^2, resulting in up-regulation of YAP/TEAD-mediated transcription. […] To evaluate TEAD inhibitors, the MSTO-211H+12XGTIIC cell line was seeded in a 96-well plate in 50 μL of culture media at 1×10^4 cells per well and incubated at 37° C. overnight. Serial dilutions of compounds (in total volume of 50 μL of culture media) were added to the cells and incubated at 37° C. for 24 hours. Each plate included cells treated with DMSO as high controls and cells treated with 20 μM of the reference compound K-975 (a known TEAD inhibitor^3) as low controls. Cell viability was assayed by the addition of 25 μL of CellTiter-Fluor reagent (Promega) followed by a 30-minute incubation at 37° C. and quantification of the fluorescence signal (Ex400/Em505). Subsequently, luciferase expression was assayed by the addition of 25 μL of ONE-Glo reagent (Promega) followed by a 10-minute incubation at room temperature and quantification of the luminescence signal. The luminescence signal was normalized to the fluorescence signal to correct for any loss in cell viability over the 24-hour compound incubation period. The percentage of inhibition of normalized luminescence signal, indicative of compound-mediated inhibition of TEAD-dependent transcription, at individual compound concentrations relative to high and low controls was calculated. The data were analyzed by using nonlinear regression to generate IC50 values for individual compounds.

Compound | IC50 [µM]
C=CC(=O)Nc1ccc(C(=O)N2CCc3c(cccc3N(C)c3ccc(C(F)(F)F)cc3)C2)cc1 [Compound O-0019, N-(4-(5-(methyl(4-(trifluoromethyl)phenyl)amino)-1,2,3,4-tetrahydroisoquinoline-2-carbonyl)phenyl)acrylamide] | 0.001 to 10
O=C(NCc1ccccn1)N1CCc2c(cccc2Nc2ccc(C(F)(F)F)cc2)C1 [Compound O-0194, N-(pyridin-2-ylmethyl)-5-((4-(trifluoromethyl)phenyl)amino)-3,4-dihydroisoquinoline-2(1H)-carboxamide] | 0.001 to 10
CS(=O)(=O)c1nc(C(=O)N2CCc3c(cccc3Nc3ccc(C(F)(F)F)cc3)C2)c[nH]1 [Compound O-0045, (2-(methylsulfonyl)-1H-imidazol-4-yl)(5-((4-(trifluoromethyl)phenyl)amino)-3,4-dihydroisoquinolin-2(1H)-yl)methanone] | 0.001 to 10
O=C(C1CS(=O)(=O)C1)N1CCc2cc(Nc3ccc(C(F)(F)F)cc3)ccc2C1 [Compound O-0207, (1,1-dioxidothietan-3-yl)(6-((4-(trifluoromethyl)phenyl)amino)-3,4-dihydroisoquinolin-2(1H)-yl)methanone] | 0.001 to 10
O=C(Cc1cn[nH]c1)N1CCc2c(cccc2Nc2ccc(C(F)(F)F)cc2)C1 [Compound O-0026, 2-(1H-pyrazol-4-yl)-1-(5-((4-(trifluoromethyl)phenyl)amino)-3,4-dihydroisoquinolin-2(1H)-yl)ethan-1-one] | 0.001 to 10
O=C1NS(=O)(=O)c2cc(C(=O)N3CCc4c(cccc4Nc4ccc(C(F)(F)F)cc4)C3)ccc21 [Compound O-0199, 6-(5-((4-(trifluoromethyl)phenyl)amino)-1,2,3,4-tetrahydroisoquinoline-2-carbonyl)benzo[d]isothiazol-3(2H)-one 1,1-dioxide] | 0.001 to 10
O=C(NCCC(=O)N1CCc2c(cccc2Nc2ccc(C(F)(F)F)cn2)C1)Nc1ccccn1 [Compound O-0186, 1-(3-oxo-3-(5-((5-(trifluoromethyl)pyridin-2-yl)amino)-3,4-dihydroisoquinolin-2(1H)-yl)propyl)-3-(pyridin-2-yl)urea] | 0.001 to 10
O=C(Nc1ccccn1)N1CCC(C(=O)N2CCc3c(cccc3Nc3ccc(C(F)(F)F)cn3)C2)C1 (stereo not shown) [Compound O-0093, N-(pyridin-2-yl)-3-(5-((5-(trifluoromethyl)pyridin-2-yl)amino)-1,2,3,4-tetrahydroisoquinoline-2-carbonyl)pyrrolidine-1-carboxamide] | 0.001 to 10
Nc1cccc(C(=O)N2CCc3c(cccc3Nc3ccc(C(F)(F)F)cc3)C2)n1 [Compound O-0029, (6-aminopyridin-2-yl)(5-((4-(trifluoromethyl)phenyl)amino)-3,4-dihydroisoquinolin-2(1H)-yl)methanone] | 10 to 100
O=C(c1cccc2cc[nH]c12)N1CCc2c(cccc2Nc2ccc(C(F)(F)F)nc2)C1 [Compound O-0060, (1H-indol-7-yl)(5-((6-(trifluoromethyl)pyridin-3-yl)amino)-3,4-dihydroisoquinolin-2(1H)-yl)methanone] | 0.001 to 10
NC(=O)NCCC(=O)N1CCc2c(cccc2Nc2ccc(C(F)(F)F)cc2)C1 [Compound O-0056, 1-(3-oxo-3-(5-((4-(trifluoromethyl)phenyl)amino)-3,4-dihydroisoquinolin-2(1H)-yl)propyl)urea] | 0.001 to 10
CN(c1ccc(C(F)(F)F)cc1)c1cccc2c1CCN(C(=O)CCS(=O)(=O)C(F)(F)F)C2 [Compound O-0016, 1-(5-(methyl(4-(trifluoromethyl)phenyl)amino)-3,4-dihydroisoquinolin-2(1H)-yl)-3-((trifluoromethyl)sulfonyl)propan-1-one] | 0.001 to 10
Nc1nc(CC(=O)N2CCc3c(cccc3Nc3ccc(C(F)(F)F)cc3)C2)cs1 [Compound O-0007, 2-(2-aminothiazol-4-yl)-1-(5-((4-(trifluoromethyl)phenyl)amino)-3,4-dihydroisoquinolin-2(1H)-yl)ethan-1-one] | 0.001 to 10
C=CC(=O)Nc1cccc(C(=O)N2CCc3c(cccc3N(C)c3ccc(C(F)(F)F)cc3)C2)c1 [Compound O-0017, N-(3-(5-(methyl(4-(trifluoromethyl)phenyl)amino)-1,2,3,4-tetrahydroisoquinoline-2-carbonyl)phenyl)acrylamide] | 0.001 to 10
O=C1NC(=O)C(CC(=O)N2CCc3c(cccc3Nc3ccc(C(F)(F)F)cc3F)C2)N1 (stereo not shown) [Compound O-0196, 5-(2-(5-((2-fluoro-4-(trifluoromethyl)phenyl)amino)-3,4-dihydroisoquinolin-2(1H)-yl)-2-oxoethyl)imidazolidine-2,4-dione] | 0.001 to 10
O=C(c1cccc2[nH]ccc12)N1CCc2c(cccc2Nc2ccc(C(F)(F)F)cc2)C1 [Compound O-0027, (1H-indol-4-yl)(5-((4-(trifluoromethyl)phenyl)amino)-3,4-dihydroisoquinolin-2(1H)-yl)methanone] | 0.001 to 10
C=CC(=O)Nc1cccc(C(=O)N2CCc3c(cccc3N(C)c3ccc(C(F)(F)F)cc3)C2)n1 [Compound O-0018, N-(6-(5-(methyl(4-(trifluoromethyl)phenyl)amino)-1,2,3,4-tetrahydroisoquinoline-2-carbonyl)pyridin-2-yl)acrylamide] | 0.001 to 10
O=C(Nc1ccccn1)N1CCC(C(=O)N2CCc3c(cccc3Nc3ccc(C(F)(F)F)cc3F)C2)C1 (stereo not shown) [Compound O-0095, 3-(5-((2-fluoro-4-(trifluoromethyl)phenyl)amino)-1,2,3,4-tetrahydroisoquinoline-2-carbonyl)-N-(pyridin-2-yl)pyrrolidine-1-carboxamide] | 0.001 to 10
O=C(c1ccnc(Cl)n1)N1CCc2c(cccc2Nc2ccc(C(F)(F)F)cc2)C1 [Compound O-0041, (2-chloropyrimidin-4-yl)(5-((4-(trifluoromethyl)phenyl)amino)-3,4-dihydroisoquinolin-2(1H)-yl)methanone] | 0.001 to 10
Cn1cncc1CC(=O)N1CCc2c(cccc2Nc2ccc(C(F)(F)F)cc2)C1 [Compound O-0002, 2-(1-methyl-1H-imidazol-5-yl)-1-(5-((4-(trifluoromethyl)phenyl)amino)-3,4-dihydroisoquinolin-2(1H)-yl)ethan-1-one] | 0.001 to 10
CS(=O)(=O)c1cccc(C(=O)N2CCc3c(cccc3Nc3ccc(C(F)(F)F)cc3)C2)c1 [Compound O-0202, (3-(methylsulfonyl)phenyl)(5-((4-(trifluoromethyl)phenyl)amino)-3,4-dihydroisoquinolin-2(1H)-yl)methanone] | 0.001 to 10
O=C(Cc1c[nH]cn1)N1CCc2c(cccc2Nc2ccc(C(F)(F)F)cc2)C1 [Compound O-0053, 2-(1H-imidazol-4-yl)-1-(5-((4-(trifluoromethyl)phenyl)amino)-3,4-dihydroisoquinolin-2(1H)-yl)ethan-1-one] | 0.001 to 10
Nc1cccc(CNC(=O)N2CCc3c(cccc3Nc3ccc(C(F)(F)F)cc3)C2)n1 [Compound O-0191, N-((6-aminopyridin-2-yl)methyl)-5-((4-(trifluoromethyl)phenyl)amino)-3,4-dihydroisoquinoline-2(1H)-carboxamide] | 0.001 to 10
CN(c1ccc(C(F)(F)F)cn1)c1cccc2c1CCN(C(=O)CCS(=O)(=O)C(F)(F)F)C2 [Compound O-0022, 1-(5-(methyl(5-(trifluoromethyl)pyridin-2-yl)amino)-3,4-dihydroisoquinolin-2(1H)-yl)-3-((trifluoromethyl)sulfonyl)propan-1-one] | 0.001 to 10
NC(=O)NCCC(=O)N1CCc2c(cccc2Nc2ccc(C(F)(F)F)c(F)c2)C1 [Compound O-0190, 1-(3-(5-((3-fluoro-4-(trifluoromethyl)phenyl)amino)-3,4-dihydroisoquinolin-2(1H)-yl)-3-oxopropyl)urea] | 0.001 to 10
C=CC(=O)Nc1cccc(C(=O)N2CCc3c(cccc3Nc3ccc(C(F)(F)F)cc3)C2)n1 [Compound O-0035, N-(6-(5-((4-(trifluoromethyl)phenyl)amino)-1,2,3,4-tetrahydroisoquinoline-2-carbonyl)pyridin-2-yl)acrylamide] | 0.001 to 10
O=C(Cc1cn[nH]c1)N1CCc2c(cccc2Nc2ccc(C(F)(F)F)nc2)C1 [Compound O-0059, 2-(1H-pyrazol-4-yl)-1-(5-((6-(trifluoromethyl)pyridin-3-yl)amino)-3,4-dihydroisoquinolin-2(1H)-yl)ethan-1-one] | 0.001 to 10
CN(c1ccc(C(F)(F)F)nc1)c1cccc2c1CCN(C(=O)CCS(=O)(=O)C(F)(F)F)C2 [Compound O-0023, 1-(5-(methyl(6-(trifluoromethyl)pyridin-3-yl)amino)-3,4-dihydroisoquinolin-2(1H)-yl)-3-((trifluoromethyl)sulfonyl)propan-1-one] | 0.001 to 10
